The results in this text go back to ChEMBL document CHEMBL5360639, “Cannabidiol Analogue CIAC001 for the Treatment of Morphine-Induced Addiction by Targeting PKM2” (J Med Chem, 2023).

A short description of series [1]: Therapeutic index, ratio of IC50 for cytotoxicty against mouse BV-2 cells assessed as reduction in cell viability by crystal violet staining based assay to IC50 for nti-neuroinflammatory activity in mouse BV-2 cells assessed as inhibition of LPS-induced NO production. Conditions: read-out: Ratio IC50. The class given is toxicity.
Series [2] in a line: Cytotoxicity against mouse BV-2 cells assessed as reduction in cell viability by crystal violet staining based assay. The format is toxicity.
Series [3] deals with BV-2. As to the kind of experiment: Anti-neuroinflammatory activity in mouse BV-2 cells assessed as inhibition of LPS-induced NO production incubated for 24 hrs by microplate reader analysis. The format is functional, cell-based. Conditions: BV-2, 24 h.
Series [4] is described as follows: Toxicity in BALB/c mouse assessed as cognitive impairment by measuring time spent on new arm at 10 mg/kg, ip administered once daily for 3 days and measured after 45 mins by Y maze test. The class given is organism-based. Conditions: in vivo, 72.75 h, time 4365 min.
In series [5] the test system is Mus musculus. As to the kind of experiment: Anti-neuroinflammatory activity in morphine-induced BALB/c mouse assessed as inhibition of behavioral sensitization at 0.2 mg/kg, ip administered once daily for 7 days. The format is functional, organism-based. Conditions: time 7.0 day.
Series [6] in a line: Cmax in BALB/c mouse at 10 mg/kg, po measured upto 4 hrs by mS-HPLC analysis. The class given is ADME, organism-based. More on the design: time < 4 hrs, dose 10 mg/kg, route po. Conditions: in vivo.
A short description of series [7]: AUC (0 to t) in BALB/c mouse at 10 mg/kg, po measured upto 4 hrs by mS-HPLC analysis. The format is ADME, organism-based. Conditions: in vivo.
Series [8] in a line: Half life in BALB/c mouse at 10 mg/kg, po measured upto 4 hrs by mS-HPLC analysis. The class given is ADME, organism-based. Conditions: in vivo.
In series [9] the test system is Mus musculus. As to the kind of experiment: Anti-neuroinflammatory activity in naloxone precipitated morphine-induced BALB/c mouse assessed as reduction in naloxone precipitated withdrawal jumps at 0.2 microg/kg, ip administered with morphine 3 times daily for 3 days and on day 4 for 3 hrs prior to compound addition for 30 mins before naloxone addition and measured after 15 mins. Conditions: dose 0.2 µg/kg, time 45.0 min. The class given is functional, organism-based.

Series [10] deals with Mus musculus. As to the kind of experiment: Anti-neuroinflammatory activity in morphine-induced BALB/c mouse assessed as […] in locomotor activity 0.2 mg/kg, ip administered once daily for 7 days and measured after 60 mins. Conditions: time 169.0 hrs. The class given is functional, organism-based.
A short description of series [11]: MRT in BALB/c mouse at 10 mg/kg, po measured upto 4 hrs by mS-HPLC analysis. The class given is ADME, organism-based. Conditions: in vivo.
Series [12] concerns BV-2. As to the kind of experiment: Anti-neuroinflammatory activity in LPS-induced mouse BV-2 cells assessed as reduction in IL-6 mRNA expression at 1 to 10 uM by qRT-PCR analysis. Conditions: dose 1-10 µM. The format is functional, cell-based.
The subject of series [13] is BV-2. As to the kind of experiment: Anti-neuroinflammatory activity in LPS-induced mouse BV-2 cells assessed as reduction in IL-1beta mRNA expression at 10 uM by qRT-PCR analysis. The format is functional, cell-based.
Series [14] can be described thus: Ratio of drug concentration in blood to plasma in BALB/c mouse at 10 mg/kg, po measured at 3 hrs. The format is ADME, organism-based. Conditions: in vivo.
Series [15] concerns BV-2. As to the kind of experiment: Anti-neuroinflammatory activity in LPS-induced mouse BV-2 cells assessed as reduction in TNF-alpha mRNA expression at 1 to 10 uM by qRT-PCR analysis. The format is functional, cell-based. Conditions: dose 1-10 µM.

Active and inactive are the calls of the source. The rule behind the calls is not given here.

Turning to `C#CCOc1cc(CCCCC)cc(O)c1[C@@H]1C=C(C)CC[C@H]1C(=C)C`, the selectivity ratio in series [1] amounted to 1.2. Further, the results for the half-inhibitory concentration (IC50) (in series [2]; in the series with BV-2 [3]) were 65 µM and 99.6 µM, respectively.

Consider `C=C(C)[C@@H]1CCC(C)=C[C@H]1c1c(O)cc(CCCCC)cc1OCCC`, for which, in [2], the IC50 was over 200 µM.

As for `C=C(C)[C@@H]1CCC(C)=C[C@H]1c1c(O)cc(CCC)cc1O` [CANNABIDIVARIN], the selectivity ratio in series [1] was found to be 3.5. The half-inhibitory concentration (IC50) in series [2] turned out to be 18.3 µM; in the series on BV-2 [3], 5.3 µM.

Consider `C=C(C)[C@@H]1CCC(C)=C[C@H]1c1c(O)cc(C(C)n2cccc2)cc1O` (stereo partly specified), for which, in [1], the selectivity ratio was 6.5. The results for the IC50 (in [2]; in the series with BV-2 [3]) were 155 µM and 23.9 µM, respectively.

Regarding `C=C(C)[C@@H]1CCC(C)=C[C@H]1c1c(OCCC)cc(CCCCC)cc1OCCC`, in [2], the IC50 was over 200 µM.

In the case of `C=CCOc1cc(CCCCC)cc(OCC=C)c1[C@@H]1C=C(C)CC[C@H]1C(=C)C`, the IC50 in series [2] was over 200 µM.

Consider `C=C(C)[C@@H]1CCC(C)=C[C@H]1c1c(O)cc(CCCC)cc1O`, for which the selectivity ratio in series [1] is 2.2. The figures for the IC50 (in [2]; in the series on BV-2 [3]) were 11.1 µM and 5 µM, respectively.

With `C=C(C)[C@@H]1CCC(C)=C[C@H]1c1c(O)cc(CCCCCCCC)cc1O`, in series [1], the selectivity ratio came out at 0.2. For the same molecule, the IC50 in series [2] is 26.2 µM.

With `CCCCCc1cc(O)c2c(c1)OC(C)(C)[C@@H]1CCC(C)=C[C@@H]21` [DRONABINOL], the Activity entry in series [4] is reported as “Toxic”.

In the case of `C=C(C)[C@@H]1CCC(C)=C[C@H]1c1c(O)cc(C(C)n2ccnc2)cc1O` (stereo partly specified), the selectivity ratio in series [1] turned out to be 7.4. The IC50 amounted to 32.6 µM in series [2] and 4.4 µM in the series with BV-2 [3].

For the molecule `C=C(C)[C@@H]1CCC(C)=C[C@H]1c1c(O)cc(CCCCCCCCCCCC)cc1O`, the concentration for half-maximal inhibition (IC50) in series [2] is over 200 µM.

With `C=C(C)[C@@H]1CCC(C)=C[C@H]1c1c(OC)cc(CCCCC)cc1OC`, the IC50 in series [2] was over 200 µM; in the series on BV-2 [3], over 20 µM.

Regarding `C=C(C)[C@@H]1CCC(C)=C[C@H]1c1c(O)cc(CC)cc1O`, in [1], the selectivity ratio came out at 9.1. Further, the 50% inhibitory concentration (IC50) in series [2] was 22.6 µM; in the series on BV-2 [3], 2.5 µM.

Take `C=C(C)[C@@H]1CCC(C)=C[C@H]1c1c(O)cc(C(C)n2ccnn2)cc1O` (stereo partly specified): the selectivity ratio in [1] is 2.1. Also, the IC50 turned out to be 77.1 µM in series [2] and 35.9 µM in the series with BV-2 [3].

As to `C=C(C)[C@@H]1CCC(C)=C[C@H]1c1c(O)cc(CCCCC)cc1O` [CANNABIDIOL], the selectivity ratio in [1] is 0.7. Further, the outcome in the series with Mus musculus [5], in the series with Mus musculus [9], in the series with Mus musculus [10], in the series on BV-2 [12], in the series with BV-2 [13] and with BV-2 [15] was inactive. The same molecule showed a Cmax in series [6] of 98.1 ng/g. The molecule further showed an AUCt in series [7] of 66.7 ng·h/g. Also, the half-inhibitory concentration (IC50) in series [2] came out at 8.5 µM; with BV-2 [3] it was 12.3 µM. In series [8], the half-life was 30 min. Also, the MRT in series [11] stood at 42 min. For the same molecule, the Ratio in [14] is reported as under 100%.

For `C=CCOc1cc(CCCCC)cc(O)c1[C@@H]1C=C(C)CC[C@H]1C(=C)C`, the selectivity ratio in series [1] came out at 0.7. For the same molecule, the IC50 in [2] was found to be 71.5 µM; in the series on BV-2 [3] it was 59.8 µM.

In the case of `C#CCOc1cc(CCCCC)cc(OCC#C)c1[C@@H]1C=C(C)CC[C@H]1C(=C)C`, the results for the half-inhibitory concentration (IC50) (in series [2]; with BV-2 [3]) were over 200 µM and 200 µM, respectively.

With `C=C(C)[C@@H]1CCC(C)=C[C@H]1c1c(O)cc(CCCCCCC)cc1O`, the selectivity ratio in [1] turned out to be 0.3. The IC50 stood at 14.1 µM in [2] and 42 µM in the series on BV-2 [3].

With `C=C(C)[C@@H]1CCC(C)=C[C@H]1c1c(OCC)cc(CCCCC)cc1OCC`, the IC50 in series [2] is over 200 µM.

Consider `C=C(C)[C@@H]1CCC(C)=C[C@H]1c1c(O)cc(CCCCC)cc1OC`, for which the selectivity ratio in series [1] is 1.6. The IC50 in series [2] came to 58.2 µM; in the series on BV-2 [3], 37.2 µM.

For the molecule `C=C(C)[C@@H]1CCC(C)=C[C@H]1c1c(O)cc(CCCCC)cc1OCC`, the selectivity ratio in series [1] is 1.1. In [2], the 50% inhibitory concentration (IC50) came out at 176 µM.

`C=C(C)[C@@H]1CCC(C)=C[C@H]1c1c(O)cc(CCCCCC)cc1O`: the selectivity ratio in [1] is 9. For the same molecule, the 50% inhibitory concentration (IC50) in [2] is 19 µM; in the series on BV-2 [3] it was 2.1 µM.
